{"source": "patent US20050288373A1", "about": "“Methods of treating various conditions by administration of sustained release L-arginine” (priority 2002, published 2005)", "key": {"HDL cholesterol": {"system": "HDL cholesterol", "details": "resulting from treatment, 3 weeks", "method": "(§1) Endothelium-dependent vasodilation was assessed by brachial artery ultrasound using computer-assisted image analysis; ADMA and L-arginine plasma concentrations were determined by a validated HPLC method.\n(§2) In the study described in Example 15, the change in total cholesterol (TC), LDL cholesterol, HDL cholesterol, and triglycerides was analyzed pre- and post-treatment."}, "LDL cholesterol": {"system": "LDL cholesterol", "details": "resulting from treatment, 3 weeks", "method": "as §1, §2"}, "triglycerides": {"system": "triglycerides", "test": "Triglyceride levels pre- and post-treatment", "type": "in vivo, human", "details": "for No. of subjects outside normal range, triglycerides: 15 subjects"}, "total cholesterol": {"system": "total cholesterol", "test": "Change in total cholesterol levels", "type": "in vivo, human", "details": "resulting from treatment, 3 weeks", "method": "as §1, §2"}, "[1]": {"details": "resulting from treatment, 3 weeks"}}}
{"smiles": "CCC(C)(C)C(=O)O[C@H]1C[C@@H](C)C=C2C=C[C@H](C)[C@H](CC[C@@H]3C[C@@H](O)CC(=O)O3)[C@H]21", "note": "[Simvastatin, simvastatin]", "values": [{"measurement": "Change in High Density Lipoprotein Cholesterol Levels, Mean", "setting": "HDL cholesterol", "value": 1.2, "unit": "mg/dL"}, {"measurement": "Change in High Density Lipoprotein Cholesterol Levels, Median", "setting": "HDL cholesterol", "value": 0.0, "unit": "mg/dL"}, {"measurement": "Change in High Density Lipoprotein Cholesterol Levels, Min-Max", "setting": "HDL cholesterol", "value": "-7 to 20", "unit": "mg/dL"}, {"measurement": "Change in Low Density Lipoprotein Cholesterol Levels, Mean", "setting": "LDL cholesterol", "value": -70.7, "unit": "mg/dL"}, {"measurement": "Change in Low Density Lipoprotein Cholesterol Levels, Median", "setting": "LDL cholesterol", "value": -78.0, "unit": "mg/dL"}, {"measurement": "Change in Low Density Lipoprotein Cholesterol Levels, Min-Max", "setting": "LDL cholesterol", "value": "-121 to -20", "unit": "mg/dL"}, {"measurement": "Triglyceride Levels, Mean", "setting": "triglycerides; after treatment, 3 weeks", "value": 140.2, "unit": "mg/dL"}, {"measurement": "Triglyceride Levels, Median", "setting": "triglycerides; after treatment, 3 weeks", "value": 134.0, "unit": "mg/dL"}, {"measurement": "Triglyceride Levels, Min-Max", "setting": "triglycerides; after treatment, 3 weeks", "value": "58 to 440", "unit": "mg/dL"}, {"measurement": "No. of subjects outside normal range, triglycerides", "setting": "triglycerides; after treatment, 3 weeks", "value": 1}, {"measurement": "Triglyceride Levels, Mean", "setting": "triglycerides; before treatment", "value": 165.1, "unit": "mg/dL"}, {"measurement": "Triglyceride Levels, Median", "setting": "triglycerides; before treatment", "value": 155.0, "unit": "mg/dL"}, {"measurement": "Triglyceride Levels, Min-Max", "setting": "triglycerides; before treatment", "value": "51 to 337", "unit": "mg/dL"}, {"measurement": "No. of subjects outside normal range, triglycerides", "setting": "triglycerides; before treatment", "value": 5}, {"measurement": "Change in Triglyceride Levels, Mean", "setting": "triglycerides; [1]", "value": -24.9, "unit": "mg/dL"}, {"measurement": "Change in Triglyceride Levels, Median", "setting": "triglycerides; [1]", "value": -38.0, "unit": "mg/dL"}, {"measurement": "Change in Triglyceride Levels, Min-Max", "setting": "triglycerides; [1]", "value": "-143 to 205", "unit": "mg/dL"}, {"measurement": "Change in Total Cholesterol Levels, Mean", "setting": "total cholesterol", "value": -76.3, "unit": "mg/dL"}, {"measurement": "Change in Total Cholesterol Levels, Median", "setting": "total cholesterol", "value": -78.0, "unit": "mg/dL"}, {"measurement": "Change in Total Cholesterol Levels, Min-Max", "setting": "total cholesterol", "value": "-134 to -14", "unit": "mg/dL"}]}
